pKi: −log10 of the molar value.
Assays:
[1] = target: T1, Polyunsaturated fatty acid 5-lipoxygenase (Homo sapiens, UniProt P09917)
T1 sequence (P09917 whole entry): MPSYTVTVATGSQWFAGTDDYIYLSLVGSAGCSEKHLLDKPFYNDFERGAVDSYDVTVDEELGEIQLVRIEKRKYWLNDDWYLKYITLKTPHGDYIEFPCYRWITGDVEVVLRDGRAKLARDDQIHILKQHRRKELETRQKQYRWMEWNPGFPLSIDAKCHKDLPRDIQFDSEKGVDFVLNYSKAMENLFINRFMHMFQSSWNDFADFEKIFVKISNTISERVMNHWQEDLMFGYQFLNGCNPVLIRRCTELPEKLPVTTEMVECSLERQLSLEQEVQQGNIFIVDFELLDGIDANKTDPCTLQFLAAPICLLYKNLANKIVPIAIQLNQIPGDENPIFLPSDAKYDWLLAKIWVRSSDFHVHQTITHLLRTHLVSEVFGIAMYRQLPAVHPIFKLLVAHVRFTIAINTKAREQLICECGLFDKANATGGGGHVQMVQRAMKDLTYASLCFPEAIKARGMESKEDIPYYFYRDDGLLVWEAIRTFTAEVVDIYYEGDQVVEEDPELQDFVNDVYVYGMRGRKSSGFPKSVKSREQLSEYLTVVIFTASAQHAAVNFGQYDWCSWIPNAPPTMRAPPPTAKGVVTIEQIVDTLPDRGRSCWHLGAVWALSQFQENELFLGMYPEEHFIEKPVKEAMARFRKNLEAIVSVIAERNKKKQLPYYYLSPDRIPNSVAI

Thromboxane A2 receptor = target: T2, Thromboxane A2 receptor (Homo sapiens, UniProt P21731)
T2 sequence (P21731 whole entry): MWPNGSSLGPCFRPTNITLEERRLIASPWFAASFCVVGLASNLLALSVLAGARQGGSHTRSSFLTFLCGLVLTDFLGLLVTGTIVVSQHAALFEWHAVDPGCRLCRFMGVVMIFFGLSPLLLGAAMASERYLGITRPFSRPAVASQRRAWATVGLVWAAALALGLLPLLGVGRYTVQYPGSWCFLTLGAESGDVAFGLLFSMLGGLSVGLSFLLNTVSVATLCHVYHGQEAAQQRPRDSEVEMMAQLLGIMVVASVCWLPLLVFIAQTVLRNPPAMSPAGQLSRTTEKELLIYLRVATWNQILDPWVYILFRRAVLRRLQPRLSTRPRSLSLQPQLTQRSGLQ

Histamine H1 receptor = Histamine H1 receptor (Homo sapiens, UniProt P35367)
Histamine H1 receptor, sequence (P35367 whole entry): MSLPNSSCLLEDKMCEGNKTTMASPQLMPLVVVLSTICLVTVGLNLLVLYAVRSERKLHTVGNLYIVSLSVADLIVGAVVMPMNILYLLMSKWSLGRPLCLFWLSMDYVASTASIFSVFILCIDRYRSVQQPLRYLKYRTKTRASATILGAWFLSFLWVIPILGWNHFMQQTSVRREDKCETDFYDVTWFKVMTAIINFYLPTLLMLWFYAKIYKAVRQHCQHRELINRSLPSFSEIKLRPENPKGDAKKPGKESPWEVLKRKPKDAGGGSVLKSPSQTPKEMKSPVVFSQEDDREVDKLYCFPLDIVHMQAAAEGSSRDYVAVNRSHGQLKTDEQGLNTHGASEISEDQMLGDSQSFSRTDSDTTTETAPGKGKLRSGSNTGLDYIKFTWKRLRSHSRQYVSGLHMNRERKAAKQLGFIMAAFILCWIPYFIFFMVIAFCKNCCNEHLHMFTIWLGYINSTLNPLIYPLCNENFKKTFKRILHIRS

[2] = target: T3, Cysteinyl leukotriene receptor 1 (Homo sapiens, UniProt Q9Y271)
T3 sequence (Q9Y271 whole entry): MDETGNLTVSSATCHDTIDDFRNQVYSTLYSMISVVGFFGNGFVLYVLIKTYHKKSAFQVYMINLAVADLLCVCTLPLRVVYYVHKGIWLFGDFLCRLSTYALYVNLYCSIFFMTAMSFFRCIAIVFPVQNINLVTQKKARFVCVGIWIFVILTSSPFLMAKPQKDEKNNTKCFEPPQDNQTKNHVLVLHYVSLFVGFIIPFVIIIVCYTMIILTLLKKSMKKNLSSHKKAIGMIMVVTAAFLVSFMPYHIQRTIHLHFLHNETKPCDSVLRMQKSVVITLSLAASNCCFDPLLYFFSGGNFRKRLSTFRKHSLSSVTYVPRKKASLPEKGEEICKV

[3] = target: Leukotriene B4 receptor 1 (Homo sapiens) (UniProt Q15722)
Leukotriene B4 receptor 1 (Homo sapiens), sequence (Q15722 whole entry, looked up): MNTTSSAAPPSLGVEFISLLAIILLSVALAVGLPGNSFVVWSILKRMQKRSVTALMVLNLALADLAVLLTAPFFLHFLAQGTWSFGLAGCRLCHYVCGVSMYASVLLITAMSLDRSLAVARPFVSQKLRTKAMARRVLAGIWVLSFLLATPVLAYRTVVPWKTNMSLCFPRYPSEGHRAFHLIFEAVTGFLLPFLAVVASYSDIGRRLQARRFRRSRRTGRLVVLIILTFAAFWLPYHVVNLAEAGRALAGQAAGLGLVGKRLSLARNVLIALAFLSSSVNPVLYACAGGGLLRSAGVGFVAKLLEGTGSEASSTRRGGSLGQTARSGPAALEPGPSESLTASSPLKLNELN

Histamine H2 receptor = Histamine H2 receptor (Homo sapiens, UniProt P25021)
Histamine H2 receptor, sequence (P25021 whole entry): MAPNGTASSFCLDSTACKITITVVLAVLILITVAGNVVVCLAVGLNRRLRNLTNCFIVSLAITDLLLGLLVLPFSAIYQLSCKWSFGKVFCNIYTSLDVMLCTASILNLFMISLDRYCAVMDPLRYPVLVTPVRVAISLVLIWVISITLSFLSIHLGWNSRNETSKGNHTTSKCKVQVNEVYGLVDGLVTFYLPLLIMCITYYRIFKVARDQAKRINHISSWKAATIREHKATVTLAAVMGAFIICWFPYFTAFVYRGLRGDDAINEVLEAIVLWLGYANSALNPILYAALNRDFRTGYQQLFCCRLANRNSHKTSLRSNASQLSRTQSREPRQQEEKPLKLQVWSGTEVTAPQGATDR

[4] = target: T4, Alpha-1A adrenergic receptor (Rattus norvegicus, UniProt P43140)
T4 sequence (P43140 whole entry): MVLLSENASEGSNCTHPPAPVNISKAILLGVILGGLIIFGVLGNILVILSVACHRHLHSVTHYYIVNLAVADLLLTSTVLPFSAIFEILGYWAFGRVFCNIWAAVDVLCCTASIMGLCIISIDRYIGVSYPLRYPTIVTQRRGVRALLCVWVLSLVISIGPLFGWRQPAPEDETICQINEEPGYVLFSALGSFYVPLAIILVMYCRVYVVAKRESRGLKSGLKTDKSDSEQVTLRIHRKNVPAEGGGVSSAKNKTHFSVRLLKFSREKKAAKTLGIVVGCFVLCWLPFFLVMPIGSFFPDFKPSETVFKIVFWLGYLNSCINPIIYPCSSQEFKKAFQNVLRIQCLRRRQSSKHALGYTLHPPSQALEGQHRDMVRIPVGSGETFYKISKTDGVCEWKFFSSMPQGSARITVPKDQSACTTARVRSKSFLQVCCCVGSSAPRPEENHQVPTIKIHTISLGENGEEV

[5] = target: Platelet-activating factor receptor (Homo sapiens, UniProt P25105)
Platelet-activating factor receptor, sequence (P25105 whole entry): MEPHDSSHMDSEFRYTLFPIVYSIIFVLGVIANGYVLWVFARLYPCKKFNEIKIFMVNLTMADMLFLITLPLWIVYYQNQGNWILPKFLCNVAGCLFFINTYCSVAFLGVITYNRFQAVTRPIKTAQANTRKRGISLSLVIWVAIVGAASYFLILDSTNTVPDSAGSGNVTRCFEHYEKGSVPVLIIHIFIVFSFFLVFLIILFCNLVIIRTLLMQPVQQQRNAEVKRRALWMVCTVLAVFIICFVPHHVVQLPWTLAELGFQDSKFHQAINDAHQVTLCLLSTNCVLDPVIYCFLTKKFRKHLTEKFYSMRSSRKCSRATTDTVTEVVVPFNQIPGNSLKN

[6] = target: T5, 5-hydroxytryptamine receptor 1A (Homo sapiens, UniProt P08908)
T5 sequence (P08908 whole entry): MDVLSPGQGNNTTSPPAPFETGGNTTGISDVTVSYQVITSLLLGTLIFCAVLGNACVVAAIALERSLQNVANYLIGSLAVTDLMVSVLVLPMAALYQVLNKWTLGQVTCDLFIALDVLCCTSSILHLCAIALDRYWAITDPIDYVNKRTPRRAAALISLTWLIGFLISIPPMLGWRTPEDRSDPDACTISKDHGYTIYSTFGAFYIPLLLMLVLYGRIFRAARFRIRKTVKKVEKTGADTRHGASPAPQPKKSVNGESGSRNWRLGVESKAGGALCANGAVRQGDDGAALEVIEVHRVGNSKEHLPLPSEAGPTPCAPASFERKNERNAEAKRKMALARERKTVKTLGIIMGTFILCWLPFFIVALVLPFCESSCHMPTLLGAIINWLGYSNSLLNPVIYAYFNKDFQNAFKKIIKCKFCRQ

Measured: pKi

CC(C)C(=O)N(c1ccccc1)C1CC(C)N(C(=O)c2ccccc2)c2ccccc21 (stereo unspecified) [K117]
not listed: [6]
< 6.00: all other assays above

CCC(=O)N1c2ccccc2C(N(C(C)=O)c2ccccc2)CC1C (stereo unspecified) [K376]
< 6.00: all assays above

CC1CC(N(C(=O)C2CC2)c2ccccc2)c2ccccc2N1C(=O)c1ccccc1 (stereo unspecified) [K604]
< 6.00: all assays above

Reference: BindingDB's records for doi:10.1124/jpet.104.081539 (Kyowa Hakko Kogyo, 2005)
